This is an account of results in PMC4645114, “Discovery of Novel ROCK1 Inhibitors via Integrated Virtual Screening Strategy and Bioassays” (Scientific Reports, 2015).

One series deals with T1, ROCK1 (Homo sapiens, UniProt Q13464).
T1 construct: 15 μl kinase reaction volume with 5 ng ROCK1 enzyme
Briefly: Z′-LYTE kinase assay, ROCK1 enzyme activity. The class given is biochemical. As to the method:
Kinase inhibition was measured by using the Z′-LYTE™ Kinase Assay Kit with Ser/Thr 7 peptide substrate (Invitrogen, cat. PV3180). Compounds were tested on three individual times with eight point dilutions performed in duplicate to determine the average IC50 values. The assay conditions were optimized to 15 μl kinase reaction volume with 5 ng ROCK1 enzyme in 50 mM HEPES (pH = 7.5), 10 mM MgCl2, 0.01% Brij-35 and 1 mM EGTA. Initially, the reaction was incubated for 1 hour at room temperature in the presence of 1.5 μM peptide substrate and 12.5 μM ATP for ROCK1. Then, 5 μL development reagent A was added and the assay plate was incubated for another 1 hour. Finally, […] stop reagent was added and the assay plate was shaken for 1 hour. The coumarin (ex. 400 nm, em. 445 nm) and fluorescein (ex. 400 nm, em. 520 nm) emission signals were measured on a fluorescence plate reader (Thermo Scientific Varioskan Flash).

Series [1] deals with phosphorylation of cofilin (ROCK pathway) in HUVEC. The series can be described thus: Western blotting of cofilin phosphorylation in HUVEC. The class given is cell-based, Human. The following applies: compared with the control group. As to the method:
Human umbilical vein endothelial cells (HUVEC, ATCC, Manassas, USA) were cultured and maintained in the F-12 K medium with 2 mM L-glutamine, 1.5 g/L sodium bicarbonate, 100 μg/mL heparin, 30 μg/mL endothelial cell growth supplement and 10% fetal bovine serum (FBS) at 37 °C in a humidified atmosphere of 5% CO2. Cells were exposed to culture medium with 10% FBS for at least 1 day before experiments. Only 3–6 passages of cells were used in this study.
HUVEC was pretreated with different targeted compounds (TS-15 and TS-40) for 1 hour. Y27632 and 0.2% DMSO were used as the positive control and vehicle control, respectively. After drug treatment, cells were washed with pre-cold PBS and lysed on ice with RIPA lysis buffer for 30 min, followed by centrifugation at 12,500 g for 20 min at 4 °C. The supernatant was collected and protein concentration was determined using the BCA protein assay kit (Thermo Scientific Pierce). Aliquots of protein samples were boiled for 5 min at 95 °C and electrophoresed on 10% SDS-PAGE and then transferred to a polyvinylidene difluoride membrane (Bio-Rad, Hercules, CA, USA). Subsequently, the membrane was blocked with 5% (w/v) nonfat milk in TBS-T buffer for 1 hour at room temperature. The blots were incubated overnight at 4 °C with primary antibodies. After being washed with TBS-T for 20 min at room temperature, the membranes were further incubated with horseradish peroxidase-conjugated secondary antibodies for 2 hours at room temperature. Finally, protein bands were visualized using ECL Plus Western blotting detection reagents (GE Healthcare, Piscataway, NJ, USA). The membranes were then scanned on a Bio-Rad ChemiDoc imaging system and the intensity of the protein bands was analyzed using the Bio-Rad Image Lab software.
Background: A western blot detects proteins with antibodies after separation by electrophoresis.

In a further series the test system is zebrafish embryos. Briefly: Atorvastatin-induced cerebral hemorrhage in zebrafish. The class given is in vivo. On the set-up: hemorrhage changes compared with the disease model group: dose or concentration left out as unconfirmed. The following applies: for Cerebral hemorrhage rate (%): then atorvastatin 24 hours; for hemorrhage changes compared with the disease model group: atorvastatin 24 hours. As for the experimental part: Tg (fli1a:EGFP)y1; Tg (gata1a:dsRed)sd2 homozygous double transgenic zebrafish was used and maintained as described in our previous study. […] The animal experiments were carried out in “accordance” with the approved guidelines of the Animal Research Ethics Committee, University of Macau and approved by the Animal Research Ethics Committee, University of Macau.
Tg (fli1a:EGFP)y1; Tg (gata1a:dsRed)sd2 homozygous double transgenic zebrafish embryos at 22 hours post-fertilization (hpf) were pretreated with the targeted compounds (TS 15 and TS 40) for 2 hours. During this period, the positive control group was treated with […] Y27632 while the vehicle control group was given with 0.2% DMSO (solvent). Then, all the pretreated embryos washed with PBS for 3 times and challenged with 1 mM atorvastatin for 24 hours according to the reported protocol with small modifications. After that, the viability and cerebral hemorrhage changes were observed using a fluorescence microscope (Olympus IX81 Motorized Inverted Microscope, Japan) equipped with a digital camera (DP controller, Soft Imaging System, Olympus, Germany). The results were analyzed with Axiovision 4.2 (Soft Imaging System, Olympus, Germany) and the public-domain Image J software (Rasband WS, Image J; US National Institutes of Health, Bethesda, MD). The cerebral hemorrhage rate of each group was calculated by the number of zebrafish with cerebral hemorrhage to the total number of each group.

[2] abbreviates: ROCK1, 12.5 μM ATP, 8-point dilutions, three individual times.

Values joined by “and” are separate entries in the source; they are usually repeats but may differ in a detail not shown here. Equal values may be shown once.

The term IC50 denotes the point on the concentration scale where inhibition reaches its midpoint.

T1 sequence (Q13464 whole entry): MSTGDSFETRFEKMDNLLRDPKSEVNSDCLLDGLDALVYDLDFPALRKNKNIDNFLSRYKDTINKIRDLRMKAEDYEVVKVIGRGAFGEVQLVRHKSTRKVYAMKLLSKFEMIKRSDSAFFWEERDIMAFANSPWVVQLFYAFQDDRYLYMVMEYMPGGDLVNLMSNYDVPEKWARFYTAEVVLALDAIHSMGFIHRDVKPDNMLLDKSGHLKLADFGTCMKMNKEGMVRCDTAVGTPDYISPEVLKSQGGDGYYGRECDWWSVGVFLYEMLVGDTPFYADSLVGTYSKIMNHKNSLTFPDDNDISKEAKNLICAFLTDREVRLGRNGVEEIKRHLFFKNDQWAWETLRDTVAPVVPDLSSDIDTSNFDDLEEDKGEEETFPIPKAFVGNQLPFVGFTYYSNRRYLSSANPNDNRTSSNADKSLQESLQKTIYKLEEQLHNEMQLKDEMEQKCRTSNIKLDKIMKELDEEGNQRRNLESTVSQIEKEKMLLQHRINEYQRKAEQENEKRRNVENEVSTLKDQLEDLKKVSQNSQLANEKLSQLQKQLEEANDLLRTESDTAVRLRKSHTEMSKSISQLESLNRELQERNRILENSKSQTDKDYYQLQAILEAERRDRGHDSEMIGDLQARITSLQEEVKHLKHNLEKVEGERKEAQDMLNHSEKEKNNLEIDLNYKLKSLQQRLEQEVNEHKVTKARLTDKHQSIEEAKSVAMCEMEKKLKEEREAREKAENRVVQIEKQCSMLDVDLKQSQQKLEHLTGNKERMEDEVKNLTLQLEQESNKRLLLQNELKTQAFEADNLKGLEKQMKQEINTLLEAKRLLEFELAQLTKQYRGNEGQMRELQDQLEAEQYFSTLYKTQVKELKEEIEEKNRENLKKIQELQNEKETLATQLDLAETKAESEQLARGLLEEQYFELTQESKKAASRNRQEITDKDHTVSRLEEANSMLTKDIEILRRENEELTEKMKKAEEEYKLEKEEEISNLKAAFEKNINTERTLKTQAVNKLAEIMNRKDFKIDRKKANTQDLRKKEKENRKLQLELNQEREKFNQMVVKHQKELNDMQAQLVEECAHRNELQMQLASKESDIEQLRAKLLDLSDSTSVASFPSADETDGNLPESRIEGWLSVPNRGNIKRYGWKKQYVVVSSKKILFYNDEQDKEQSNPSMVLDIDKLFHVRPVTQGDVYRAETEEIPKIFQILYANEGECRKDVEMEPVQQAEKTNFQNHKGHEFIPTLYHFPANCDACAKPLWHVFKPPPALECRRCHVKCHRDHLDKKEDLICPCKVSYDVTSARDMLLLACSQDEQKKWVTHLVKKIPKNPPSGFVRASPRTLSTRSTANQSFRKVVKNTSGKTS

In turn, `O=c1[nH]c2ccc(-c3cc(NC4CCCC4)nc4[nH]ccc34)cc2[nH]c1=O` [TS-11] returned an IC50 against ROCK1 (setting [2]) of 67.2 ± 0.57 µM.
For `NS(=O)(=O)c1ccc(-c2ccnc3[nH]ccc23)c(F)c1` [TS-40], the “phosphorylation level of cofilin (p-cofilin band, ratio to T-cofilin)” value in series [1] is “significant inhibitory effects”. Besides, the “Cerebral hemorrhage rate (%)” value in the series with zebrafish embryos (6 μM pretreatment) stood at 90.6 ± 7.4%; in the series with zebrafish embryos (20 μM pretreatment), 78.8 ± 7.1 %; with zebrafish embryos (60 μM pretreatment), 66.2 ± 7.2 %. Also, in the series on zebrafish embryos, the “hemorrhage changes compared with the disease model group” value (“hemorrhage changes” for short) is given as “obviously abated”. The “inhibitory rate against cerebral hemorrhage” value (shortened to “inhibitory rate”) came to 78.8% in the series with zebrafish embryos (dose of 20 μM) and 66.2% with zebrafish embryos (dose of 60 μM). Moreover, the IC50 at ROCK1 (setting [2]) is < 1 µM and 0.15 µM; on ROCK1 (ROCK1, value given in text), under 0.3 µM.
In turn, `NCC1CCN(Cc2ccc(-c3nc(-c4ccncc4)cc(=O)[nH]3)cc2)CC1` [TS-f7] displayed an IC50 on ROCK1 (setting [2]) of 28.3 ± 0.99 µM.
On the same count and under the same terms, the same measure for `COCCNc1cc(-c2ccc(C3(O)CCNCC3)cc2)c2cc[nH]c2n1` [TS-16]: 9.94 ± 4.33 µM.
For the compound `C[C@@H](N)[C@H]1CC[C@H](C(=O)Nc2ccncc2)CC1` [Y27632, reference compound], the “phosphorylation level of cofilin (p-cofilin band, ratio to T-cofilin)” value in series [1] is listed as “reduced significantly”. Moreover, the “Cerebral hemorrhage rate (%)” value in the series with zebrafish embryos (10 μM pretreatment) is recorded as 74.4 ± 8.7 %. In addition, the “hemorrhage changes” value in the series with zebrafish embryos is reported as “obviously abated”. In addition, in the series on zebrafish embryos (dose of 10 μM), the “inhibitory rate” value came out at 74.4%.
As for `OC(CN1CCOCC1)c1ccc(-c2ccnc3[nH]ccc23)cc1` (stereo not shown) [TS-15], the “phosphorylation level of cofilin (p-cofilin band, ratio to T-cofilin)” value in series [1] was “significant inhibitory effects”. Besides, the “Cerebral hemorrhage rate (%)” value is 79.3 ± 5.9% with zebrafish embryos (6 μM pretreatment), 73.5 ± 13.0 % with zebrafish embryos (20 μM pretreatment) and <60 ^b,* % with zebrafish embryos (60 μM pretreatment). In addition, the “hemorrhage changes” value in the series with zebrafish embryos is reported as “obviously abated”. Moreover, the “inhibitory rate” value in the series with zebrafish embryos (dose of 6 μM) is given as 79.3%; in the series with zebrafish embryos (dose of 20 μM), 73.5%; in the series on zebrafish embryos (dose of 60 μM) it was under 60%. In addition, the toxicity to zebrafish result in the series with zebrafish embryos (dose of 20 μM) is recorded as “relatively safe”; in the series on zebrafish embryos (dose of 60 μM), “toxic”. Further, the IC50 against ROCK1 (setting [2]) was < 1 µM and 0.25 µM; against ROCK1 (ROCK1, value given in text), under 0.3 µM.
`CNc1cc(-c2ccccc2OCCn2ccnc2)c2cc[nH]c2n1` [TS-27]: the IC50 at ROCK1 (setting [2]) was 26.5 ± 1.13 µM.
`Nc1cc(-c2ccc(C3(O)CCNCC3)cc2)c2cc[nH]c2n1` [TS-28]: the IC50 on ROCK1 (setting [2]) came out at 6.71 ± 1.48 µM.
Same read-out and setting: the same measure for `CN(Cc1cccc(C(=O)Nc2ccc3[nH]ncc3c2)c1)Cc1cc[nH]n1` [TS-f6]: 12.4 ± 0.85 µM; for `Cn1ncc2cc(-c3ccnc4[nH]ccc34)ccc21` [TS-f22]: < 1 µM and 0.48 µM; for `O=C(NCCc1c[nH]cn1)c1coc(COc2cccc3cnccc23)n1` [TS-f10]: 31.4 ± 1.63 µM.
At ROCK1 (setting [2]), `CCCCNC(=O)c1ccc(-c2ccnc3[nH]ccc23)o1` [TS-f32] gave an IC50 of 2.21 ± 0.21 µM.
With `O=S(=O)(c1ccccc1)c1ccc(-c2ccnc3[nH]ccc23)cc1` [TS-f13], the IC50 against ROCK1 (setting [2]) was found to be 3.2 ± 1.06 µM.
Still for that read-out and setting: next, `c1cc(OCCn2ccnc2)cc(-c2ccnc3[nH]ccc23)c1` [TS-f37]: 1.82 ± 0.76 µM; `OCCCNCc1cccc(-c2ccnc3[nH]ccc23)c1` [TS-f5]: 1.55 ± 0.57 µM; `Cc1nc(-c2cccc(-c3ccnc4[nH]ccc34)c2)no1` [TS-f26]: 3.48 ± 1.65 µM.
Same read-out and setting: the same measure for `COCc1nc2cc(-c3ccnc4[nH]ccc34)ccc2o1` [TS-f25]: 4.42 ± 1.14 µM.
The compound `CN(Cc1cc(F)ccc1O)Cc1cccc2cnccc12` [TS-f28] returned a half-maximal inhibitory concentration (IC50) against ROCK1 (setting [2]) of 23.05 ± 0.07 µM.
